Laboratory results taken from patent US20260224611A1, “POLYOL-B-POLYOXAZOLINE COPOLYMERS” (FREIE UNIVERSITÄT BERLIN, priority 2023, published 2026).

What was measured:
infected diabetic wounds = assay: Wound healing animal study, infected diabetic wounds; format: in vivo; conditions: after 10 days, rats
Method: (§1) Based on these achievements, the efficiency of hPG-b-PEtO for diabetic wound healing in animals was investigated. For this purpose, an animal study was performed in two different groups of rats with infected non-diabetic wounds (FIG. 12A) and infected diabetic wounds (FIG. 12B). […] Saline buffer without additions was used as control. The ability of the copolymer to heal wounds was investigated by measuring the wound contraction at different treatment times.

[1] = system: infected non-diabetic wounds; assay: Wound healing animal study, infected non-diabetic wounds; format: in vivo; conditions: after 10 days, rats
Method: as §1

O=C1NC(=O)C(c2ccccc2)(c2ccccc2)N1 [phenytoin]
wound closure area (infected diabetic wounds): 62%
wound closure area [1]: 90%
